The text below walks through data of ChEMBL document CHEMBL6177983, “PSMA-Guided PROTAC Degraders for Tumor-Specific Protein Degradation in Prostate Cancer” (J Med Chem, 2025).

Active and inactive are the calls of the source. The calls are words filed in the database; no cut-off is given here.

The target of data set [1] is T1, von Hippel-Lindau disease tumor suppressor/Androgen receptor (Homo sapiens, UniProt P10275+P40337). As to the kind of experiment: In vivo PROTAC activity at AR/VHL in BALB/c mouse xenografted with human LNCaP cells assessed as reduction in AR level in tumor at 1 mmol/L, iv measured at 72 hrs by Western blot analysis. The class given is functional, organism-based. In general terms: Xenograft models place foreign cells or tissue in a host animal.
Target sequence in this assay (P10275 whole entry, looked up): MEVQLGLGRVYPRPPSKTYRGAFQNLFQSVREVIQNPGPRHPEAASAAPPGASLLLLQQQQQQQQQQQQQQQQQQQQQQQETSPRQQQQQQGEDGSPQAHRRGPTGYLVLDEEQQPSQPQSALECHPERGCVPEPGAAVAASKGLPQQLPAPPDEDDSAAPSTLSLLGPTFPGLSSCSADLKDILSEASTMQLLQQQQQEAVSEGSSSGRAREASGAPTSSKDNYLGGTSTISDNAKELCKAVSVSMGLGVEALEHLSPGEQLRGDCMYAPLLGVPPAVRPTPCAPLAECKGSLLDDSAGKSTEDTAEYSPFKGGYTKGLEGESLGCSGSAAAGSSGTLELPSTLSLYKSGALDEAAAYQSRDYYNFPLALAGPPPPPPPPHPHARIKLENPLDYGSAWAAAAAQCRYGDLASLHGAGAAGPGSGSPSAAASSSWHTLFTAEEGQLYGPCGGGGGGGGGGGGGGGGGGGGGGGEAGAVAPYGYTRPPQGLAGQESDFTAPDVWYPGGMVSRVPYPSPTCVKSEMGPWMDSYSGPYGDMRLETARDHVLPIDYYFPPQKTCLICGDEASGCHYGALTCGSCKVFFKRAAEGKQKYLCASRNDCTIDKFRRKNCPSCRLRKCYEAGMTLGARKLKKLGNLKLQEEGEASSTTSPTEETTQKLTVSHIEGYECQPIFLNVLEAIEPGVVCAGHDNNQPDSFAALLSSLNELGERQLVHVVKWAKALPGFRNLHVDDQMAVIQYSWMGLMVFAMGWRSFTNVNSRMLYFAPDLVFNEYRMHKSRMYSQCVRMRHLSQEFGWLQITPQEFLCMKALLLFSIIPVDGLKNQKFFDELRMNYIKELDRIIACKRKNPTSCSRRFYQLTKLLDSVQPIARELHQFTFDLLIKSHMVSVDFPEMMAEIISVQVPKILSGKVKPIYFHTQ
Target sequence in this assay (P40337 whole entry, looked up): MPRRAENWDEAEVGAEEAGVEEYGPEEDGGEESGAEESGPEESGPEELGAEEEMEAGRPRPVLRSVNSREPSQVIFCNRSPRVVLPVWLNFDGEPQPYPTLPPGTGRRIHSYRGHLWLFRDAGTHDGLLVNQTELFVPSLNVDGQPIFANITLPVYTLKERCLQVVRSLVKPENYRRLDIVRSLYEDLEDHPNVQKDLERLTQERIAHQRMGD

Data set [2] deals with T1, von Hippel-Lindau disease tumor suppressor/Androgen receptor. As to the kind of experiment: In vivo PROTAC activity at AR/VHL in BALB/c mouse xenografted with human LNCaP cells assessed as reduction in AR level in tumor at 1 mmol/L, iv measured at 48 hrs by Western blot analysis. The class given is functional, organism-based.
Target sequence in this assay (P10275 whole entry, looked up): as the sequence (P10275 whole entry, looked up) above
Target sequence in this assay (P40337 whole entry, looked up): as the sequence (P40337 whole entry, looked up) above
For data set [3] the target is unchanged. As to the kind of experiment: PROTAC activity at AR/VHL in human 22Rv1 cells assessed as induction of androgen receptor degradation at 1 uM measured for 6 hrs in presence of VH032 by Western blot analysis. The class given is cell-based. On the technique in general: Immunoblotting shows a protein as a band on a membrane.
Target sequence in this assay (P10275 whole entry, looked up): as the sequence (P10275 whole entry, looked up) above
Target sequence in this assay (P40337 whole entry, looked up): as the sequence (P40337 whole entry, looked up) above
Data set [4] has the same target. As to the kind of experiment: PROTAC activity at AR/VHL in human VCaP cells assessed as induction of androgen receptor degradation at 0.03 to 3 uM measured for 12 hrs by Western blot analysis. The data set is classed as cell-based. The note with it: dose 0.03-3 µM.
Target sequence in this assay (P10275 whole entry, looked up): as the sequence (P10275 whole entry, looked up) above
Target sequence in this assay (P40337 whole entry, looked up): as the sequence (P40337 whole entry, looked up) above
The target is the same in data set [5]. As to the kind of experiment: PROTAC activity at AR/VHL in human LNCaP cells assessed as induction of androgen receptor degradation at 1 uM measured for 6 hrs in presence of VH032 by Western blot analysis. The class given is cell-based.
Target sequence in this assay (P10275 whole entry, looked up): as the sequence (P10275 whole entry, looked up) above
Target sequence in this assay (P40337 whole entry, looked up): as the sequence (P40337 whole entry, looked up) above
Data set [6] shares this target. As to the kind of experiment: PROTAC activity at AR/VHL in human LNCaP cells assessed as induction of androgen receptor degradation at 1 uM measured for 6 hrs in presence of MG132 by Western blot analysis. The class given is cell-based.
Target sequence in this assay (P10275 whole entry, looked up): as the sequence (P10275 whole entry, looked up) above
Target sequence in this assay (P40337 whole entry, looked up): as the sequence (P40337 whole entry, looked up) above
Data set [7] deals with LNCaP. As to the kind of experiment: Downregulation of TMPRSS2 expression in human LNCaP cells measured up to 5 uM incubated for 12 hrs by RT-qPCR analysis. The data set is classed as functional, cell-based.
Data set [8] deals with T1, von Hippel-Lindau disease tumor suppressor/Androgen receptor. As to the kind of experiment: PROTAC activity at AR/VHL in human HEK293T cells assessed as effect on AR level at 0.03 to 10 uM measured for 12 hrs by Western blot analysis. The class given is cell-based. The note with it: dose 0.03-10 µM.
The target is the same in data set [9]. As to the kind of experiment: PROTAC activity at AR/VHL in human 22Rv1 cells assessed as induction of androgen receptor degradation at 1 uM measured for 6 hrs in presence of MG132 by Western blot analysis. The class given is cell-based.
Data set [10] shares this target. As to the kind of experiment: PROTAC activity at AR/VHL in human 22Rv1 cells assessed as induction of androgen receptor degradation at 0.03 to 3 uM measured for 12 hrs by Western blot analysis. Particulars: dose 0.03-3 µM. The class given is cell-based.
The nature of data set [11]: Stability of the compound in PBS buffer measured up to 24 hrs by HPLC analysis. The data set is classed as physicochemical. The note with it: read-out: Stability.
Data set [12] has as its target T1, von Hippel-Lindau disease tumor suppressor/Androgen receptor. As to the kind of experiment: PROTAC activity at AR/VHL in human LNCaP cells assessed as induction of androgen receptor degradation measured for 12 hrs by Western blot analysis. The data set is classed as cell-based.
Data set [13] shares this target. As to the kind of experiment: PROTAC activity at AR/VHL in human HEK293T cells assessed as effect on AR level measured for 12 hrs by Western blot analysis. The data set is classed as cell-based.
Target sequence in this assay (P10275 whole entry): as the sequence (P10275 whole entry, looked up) above
Target sequence in this assay (P40337 whole entry): as the sequence (P40337 whole entry, looked up) above
A short description of data set [14]: Drug accumulation in male BALB/c mouse tumor implanted with human 22Rv1 cells at 0.3 mmol/L, iv measured at 1 to 24 hrs by LC-MS/MS analysis. Particulars: in vivo, time 1-24 hrs. The class given is ADME, organism-based, Neoplasm, CWR22R.
Data set [15] has as its target T1, von Hippel-Lindau disease tumor suppressor/Androgen receptor. As to the kind of experiment: PROTAC activity at AR/VHL in human MDA-MB-231 cells assessed as effect on AR level measured for 12 hrs by Western blot analysis. The class given is cell-based.
Target sequence in this assay (P10275 whole entry): as the sequence (P10275 whole entry, looked up) above
Target sequence in this assay (P40337 whole entry): as the sequence (P40337 whole entry, looked up) above
For data set [16] the target is unchanged. As to the kind of experiment: PROTAC activity at AR/VHL in human 22Rv1 cells assessed as induction of androgen receptor degradation at 1 uM measured for 6 hrs in presence of PSMA ligand by Western blot analysis. The data set is classed as cell-based.
The target is the same in data set [17]. As to the kind of experiment: PROTAC activity at AR/VHL in human MCF7 cells assessed as effect on AR level at 0.03 to 10 uM measured for 12 hrs by Western blot analysis. The note with it: dose 0.03-10 µM. The class given is cell-based.
Data set [18] shares this target. As to the kind of experiment: PROTAC activity at AR/VHL in human LNCaP cells assessed as induction of androgen receptor degradation at 1 uM measured for 6 hrs in presence of PSMA ligand by Western blot analysis. The class given is cell-based.
Data set [19] has the same target. As to the kind of experiment: PROTAC activity at AR/VHL in PSMA knockdown human LNCaP cells assessed as induction of androgen receptor degradation at 1 uM measured for 24 hrs by Western blot analysis. The data set is classed as cell-based.
For data set [20] the target is unchanged. As to the kind of experiment: PROTAC activity at AR/VHL in human VCaP cells assessed as induction of androgen receptor degradation measured for 12 hrs by Western blot analysis. The class given is cell-based.
Data set [21] has the same target. As to the kind of experiment: PROTAC activity at AR/VHL in human LNCaP cells assessed as induction of androgen receptor degradation at 0.03 to 3 uM measured for 12 hrs by Western blot analysis. The data set is classed as cell-based. The note with it: dose 0.03-3 µM.
Data set [22] relates to LNCaP. As to the kind of experiment: Downregulation of PSA expression in human LNCaP cells measured up to 5 uM incubated for 12 hrs by RT-qPCR analysis. The data set is classed as functional, cell-based. On the technique in general: Real-time PCR tracks product formation cycle by cycle.
Data set [23] deals with T1, von Hippel-Lindau disease tumor suppressor/Androgen receptor. As to the kind of experiment: PROTAC activity at AR/VHL in human LNCaP cells assessed as induction of androgen receptor degradation at 1 uM measured for 6 hrs in presence of MLN4924 by Western blot analysis. The class given is cell-based.
For data set [24] the target is unchanged. As to the kind of experiment: PROTAC activity at AR/VHL in human 22Rv1 cells assessed as induction of androgen receptor degradation measured for 12 hrs by Western blot analysis. The data set is classed as cell-based.
The target is the same in data set [25]. As to the kind of experiment: In vivo PROTAC activity at AR/VHL in BALB/c mouse xenografted with human LNCaP cells assessed as reduction in AR level in tumor at 1 mmol/L, iv measured for 3 days by Western blot analysis. The class given is functional, organism-based. Particulars: time 3.0 day.
Data set [26] has the same target. As to the kind of experiment: PROTAC activity at AR/VHL in human 22Rv1 cells assessed as induction of androgen receptor degradation at 1 uM measured for 6 hrs in presence of MLN4924 by Western blot analysis. The data set is classed as cell-based.
In data set [27] the test system is LNCaP. As to the kind of experiment: Downregulation of FKB51 expression in human LNCaP cells measured up to 5 uM incubated for 12 hrs by RT-qPCR analysis. The class given is functional, cell-based.
In data set [28] the target is T1, von Hippel-Lindau disease tumor suppressor/Androgen receptor. As to the kind of experiment: PROTAC activity at AR/VHL in human MDA-MB-231 cells assessed as effect on AR level at 0.03 to 10 uM measured for 12 hrs by Western blot analysis. The data set is classed as cell-based. Particulars: dose 0.03-10 µM.
Data set [29] has the same target. As to the kind of experiment: PROTAC activity at AR/VHL in human MCF7 cells assessed as effect on AR level measured for 12 hrs by Western blot analysis. The data set is classed as cell-based.
Target sequence in this assay (P10275 whole entry): as the sequence (P10275 whole entry, looked up) above
Target sequence in this assay (P40337 whole entry): as the sequence (P40337 whole entry, looked up) above
Data set [30] concerns J82. As to the kind of experiment: Cytotoxicity against human J82 cells assessed as cell viability incubated for 72 hrs by CCK-8 assay. The class given is functional, cell-based.
Data set [31] deals with LNCaP. As to the kind of experiment: Antitumor activity against human LNCaP cells xenografted in BALB/c mouse assessed as tumor growth inhibition at 0.51 mmol/L, iv administered every day for 21 days. The class given is functional. Particulars: 504 h, time 21 day, read-out: TGI.
For data set [32], the system named is LNCaP. As to the kind of experiment: Cytotoxicity against human LNCaP cells assessed as cell viability incubated for 72 hrs by CCK-8 assay. The data set is classed as functional, cell-based.
Data set [33] concerns HEK-293T. As to the kind of experiment: Cytotoxicity against HEK293T cells assessed as cell viability incubated for 72 hrs by CCK-8 assay. Particulars: human. The data set is classed as toxicity, cell-based.
The test system of data set [34] is CWR22R. As to the kind of experiment: Cytotoxicity against human 22Rv1 cells assessed as cell viability incubated for 72 hrs by CCK-8 assay. The class given is functional, cell-based.
Data set [35] has as its system LNCaP. As to the kind of experiment: Antitumor activity against human LNCaP cells xenografted in BALB/c mouse assessed as tumor growth inhibition at 1.02 mmol/L, iv administered every day for 21 days. The data set is classed as functional. The note with it: 504 h, time 21 day, read-out: TGI.
In data set [36] the test system is DU-145. As to the kind of experiment: Cytotoxicity against human DU-145 cells assessed as cell viability incubated for 72 hrs by CCK-8 assay. The class given is functional, cell-based.
The test system of data set [37] is VCaP. As to the kind of experiment: Cytotoxicity against human VCaP cells assessed as cell viability incubated for 72 hrs by CCK-8 assay. The class given is functional, cell-based.
The subject of data set [38] is Mus musculus. As to the kind of experiment: In vivo PROTAC activity at BRD4/VHL in BALB/c mouse xenografted with human LNCaP cells assessed as reduction in AR level in tumor at 1 mmol/L, iv measured for 3 days by Western blot analysis. The class given is functional, organism-based. Particulars: time 3.0 day.
Data set [39] relates to LNCaP. As to the kind of experiment: animal or person. Particulars: Mus musculus, po, 504 h, read-out: TGI.
Description: Antitumor activity against human LNCaP cells xenografted in BALB/c mouse assessed as tumor growth inhibition at 10 mg/kg, po administered every day for 21 days

Regarding `Cc1ncsc1-c1ccc(CNC(=O)[C@@H]2C[C@@H](O)CN2C(=O)[C@@H](NC(=O)CCCCCCCCCNC(=O)c2ccc(C(=O)N[C@H]3C(C)(C)[C@H](Oc4ccc(C#N)c(Cl)c4)C3(C)C)cc2)C(C)(C)C)cc1`, the result in data set [1] and in data set [2] was Active.
As to `Cc1ncsc1-c1ccc(CNC(=O)[C@@H]2C[C@@H](OC(=O)CCOCCOCCOCCC(=O)NCCCC[C@H](NC(=O)N[C@@H](CCC(=O)O)C(=O)O)C(=O)O)CN2C(=O)[C@@H](NC(=O)CCCCCCCCCNC(=O)c2ccc(C(=O)N[C@H]3C(C)(C)[C@H](Oc4ccc(C#N)c(Cl)c4)C3(C)C)cc2)C(C)(C)C)cc1`, the result in data set [3], in [4], in [5], in data set [6], in data set [7] and in data set [8] was Active. For the same compound, the result in [9], in data set [10], in data set [16], in [17], in data set [18] and in data set [19] was Active. The outcome in [21], in data set [22], in [23], in data set [25], in data set [26] and in [27] was Active. Further, the result in data set [28] was Active. Also, in [11], the remaining at 24 h is greater than 90%. The DC50 in data set [12] is 44.4 nM; in data set [13] it was greater than 5 µM; in data set [15], greater than 5 µM; in [20], 21.9 nM; in data set [24], 50.2 nM; in [29] it was greater than 5 µM. For the same compound, the Activity result in data set [12] (dose 0.03-10 µM), in [20] (dose 0.03-10 µM) and in data set [24] (dose 0.03-10 µM) was “Dose-dependent-effect” each time. Besides, the Drug uptake entry in [14] was “Active”.
Turning to `Cc1ncsc1-c1ccc([C@H](C)NC(=O)[C@@H]2C[C@@H](O)CN2C(=O)[C@@H](NC(=O)COCCCOCCNC(=O)C[C@@H]2N=C(c3ccc(Cl)cc3)c3c(sc(C)c3C)-n3c(C)nnc32)C(C)(C)C)cc1`, the result in [30], in [32], in data set [34], in data set [36], in data set [37] and in [38] was Active. The inhibition in vivo at 510 µM in data set [31] was determined as 56.2%. Further, the Activity result in data set [33] is “Toxic”. The inhibition in vivo at 1020 µM in data set [35] was 65.2%.
With `CNC(=O)c1ccc(N2C(=S)N(c3ccc(C#N)c(C(F)(F)F)c3)C(=O)C2(C)C)cc1F` [ENZALUTAMIDE], the inhibition in vivo at 10 mg/kg in data set [39] came out at 59.5%.
